Measured values: ChEMBL document CHEMBL4483862, “Open-source discovery of chemical leads for next-generation chemoprotective antimalarials” (2018)
pIC50: −log10 of the molar value.

Tested on: Plasmodium berghei
Test: Luciferase/luciferin-expressing antifolate-resistant parasites were used to infect a culture of HepG2 cells that were pre-incubated with compounds. Infected hepatocytes emit light due to the luciferase reaction. Assay results are presented as the percent inhibition of light emission compared to control. […]
Type: functional
Conditions: sporozoite; for IC90: read-out: LUCIFERASE INFECTION ASSAY - IC90
[1] = read-out: LUCIFERASE INFECTION ASSAY - IC50

| SMILES | IC90 [µM] | also measured |
| --- | --- | --- |
| CN(C)c1ccc(/C=C/c2ccc3ccccc3[n+]2C)cc1 | 2.35 | pIC50 (HEPG2TOX_HILL_SLOPE 1.22, HEPG2TOX_R_SQUARED 0.944, PBLUC_HILL_SLOPE 2.39, PBLUC_R_SQUARED 0.798, read-out: LUCIFERASE INFECTION ASSAY - IC50): 6.03 |
| N#C/C(=N\Nc1ccc(OC(F)(F)F)cc1)S(=O)(=O)c1ccccn1 | > 8.91 | pIC50 [1]: < 5.05 |
| O=C(Nc1nonc1-c1cccs1)c1sc2cc(Cl)ccc2c1Cl | 2.76 | pIC50 (FFLUC_HILL_SLOPE 17.9, FFLUC_R_SQUARED 0.511, HEPG2TOX_HILL_SLOPE 2.63, HEPG2TOX_R_SQUARED 0.88, PBLUC_HILL_SLOPE 16.1, PBLUC_R_SQUARED 0.687, read-out: LUCIFERASE INFECTION ASSAY - IC50): 5.62 |
| Cc1ccc(-c2nc3c(s2)CN(C(=O)c2ccc4c(c2)OCO4)CC3)cc1 | > 8.72 | pIC50 (HEPG2TOX_HILL_SLOPE 8.84, HEPG2TOX_R_SQUARED 0.538, PBLUC_HILL_SLOPE 2.18, PBLUC_R_SQUARED 0.0909, read-out: LUCIFERASE INFECTION ASSAY - IC50): 5.15 |
| CC1C/C(=C\c2ccco2)c2nc3ccccc3c(C(=O)OCC(=O)N3CC(=O)Nc4ccccc43)c2C1 (centres undefined) | > 10 | pIC50 [1]: < 5.00 |
| O=C(OCCSc1ccc([N+](=O)[O-])c2nonc12)c1cccc(C(F)(F)F)c1 | > 7.98 | pIC50 (FFLUC_HILL_SLOPE 3.07, FFLUC_R_SQUARED 0.747, HEPG2TOX_HILL_SLOPE 10.3, HEPG2TOX_R_SQUARED 0.666, PBLUC_HILL_SLOPE 2.08, PBLUC_R_SQUARED 0.429, read-out: LUCIFERASE INFECTION ASSAY - IC50): 5.40 |
| S=C(NCC1CCCO1)c1c(-c2ccccc2)c2c3n(c(COc4ccccc4)nn13)CCCC2 (centres undefined) | 9.41 | pIC50 (FFLUC_HILL_SLOPE 2.32, FFLUC_R_SQUARED 0.306, HEPG2TOX_HILL_SLOPE 7.94, HEPG2TOX_R_SQUARED 0.0665, PBLUC_HILL_SLOPE 11.7, PBLUC_R_SQUARED 0.258, read-out: LUCIFERASE INFECTION ASSAY - IC50): 5.11 |
| COc1ccccc1-c1nc2ccc(NC(=O)c3cc(C(C)(C)C)nn3C)cn2n1 | > 10 | pIC50 [1]: < 5.00 |
| Cc1cc2ccccn2c1C(=O)c1ccccc1Br | > 10 | pIC50 (HEPG2TOX_HILL_SLOPE 6.22, HEPG2TOX_R_SQUARED 0.365, PBLUC_HILL_SLOPE 4.01, PBLUC_R_SQUARED 0.105, read-out: LUCIFERASE INFECTION ASSAY - IC50): 5.01 |
| Cc1ccc(S(=O)(=O)/N=C2\C=C(NS(=O)(=O)c3ccc(C)cc3)C(=O)c3ccccc32)cc1 | > 10 | pIC50 (PBLUC_HILL_SLOPE 2.17, PBLUC_R_SQUARED 0.652, read-out: LUCIFERASE INFECTION ASSAY - IC50): 5.26 |
| Cc1ccc(S(=O)(=O)Oc2c(C(C)C)cc(Nc3ccccc3)cc2C(C)C)cc1 | > 10 | pIC50 (HEPG2TOX_HILL_SLOPE 0.494, HEPG2TOX_R_SQUARED 0.437, PBLUC_HILL_SLOPE 0.599, PBLUC_R_SQUARED 0.52, read-out: LUCIFERASE INFECTION ASSAY - IC50): 5.66 |
| CC(C)N1CCN(c2ccc(-c3cn4c(-c5ccc(O)cc5)cnc4cn3)cc2)CC1 | > 7.98 | pIC50 (PBLUC_HILL_SLOPE 1.81, PBLUC_R_SQUARED 0.0513, read-out: LUCIFERASE INFECTION ASSAY - IC50): < 5.10 |
| Cc1cc(C(=O)C(C)Sc2ncnc3sc(-c4ccccc4)cc23)c(C)n1-c1ccc(OC(F)F)cc1 (centres undefined) | > 10 | pIC50 (FFLUC_HILL_SLOPE 3.01, FFLUC_R_SQUARED 0.199, HEPG2TOX_HILL_SLOPE 3.15, HEPG2TOX_R_SQUARED 0.925, PBLUC_HILL_SLOPE 3.1, PBLUC_R_SQUARED 0.165, read-out: LUCIFERASE INFECTION ASSAY - IC50): 5.15 |
| CCCCCCNC(=S)c1c(-c2ccc(F)cc2)c2c3n(c(COc4cc(C)ccc4C(C)C)nn13)CCCC2 | 8.92 | pIC50 (HEPG2TOX_HILL_SLOPE 19.8, 4.67, HEPG2TOX_R_SQUARED 0.943, 0.975, PBLUC_HILL_SLOPE 3.99, PBLUC_R_SQUARED 0.689, read-out: LUCIFERASE INFECTION ASSAY - IC50): 5.29 |
| Cc1ccc2c(Cl)cc(Cl)c(OCC(=O)N(C(C)C)C(C)C)c2n1 | > 10 | pIC50 (PBLUC_HILL_SLOPE 0.984, PBLUC_R_SQUARED 0.0595, read-out: LUCIFERASE INFECTION ASSAY - IC50): < 5.00 |
| C=CCN(c1ccc(C(=O)Nc2ccc(C(F)(F)F)cc2)cc1)S(C)(=O)=O | 7.12 | pIC50 (HEPG2TOX_HILL_SLOPE 1.13, HEPG2TOX_R_SQUARED 0.916, PBLUC_HILL_SLOPE 2.09, PBLUC_R_SQUARED 0.336, read-out: LUCIFERASE INFECTION ASSAY - IC50): 5.60 |
| Cc1cc(C(=O)COC(=O)c2ccc(Cl)cc2N)c(C)n1CC1CCCO1 (centres undefined) | > 10 | pIC50 [1]: < 5.00 |
| CC1CCN(C(=O)CSC(F)(F)F)CC1 | > 10 | pIC50 [1]: < 5.00 |
| C=CCN(c1ccccc1OC)S(=O)(=O)c1ccc(Cl)c(C(=O)Nc2nc3ccccc3[nH]2)c1 | > 10 | pIC50 (HEPG2TOX_HILL_SLOPE 2.58, HEPG2TOX_R_SQUARED 0.695, PBLUC_HILL_SLOPE 1.17, PBLUC_R_SQUARED 0.361, read-out: LUCIFERASE INFECTION ASSAY - IC50): 5.65 |

| SMILES | IC90 [µM] | also measured |
| --- | --- | --- |
| CCOc1ncccc1C(=O)NCC(c1ccc(OC)cc1)N1CCCCC1 (centres undefined) | > 10 | pIC50 [1]: < 5.00 |
| CNS(=O)(=O)c1cccc(C(=O)Nc2ccc(Cl)c(C(F)(F)F)c2)c1 | > 10 | pIC50 (HEPG2TOX_HILL_SLOPE 0.613, HEPG2TOX_R_SQUARED 0.555, PBLUC_HILL_SLOPE 3.22, PBLUC_R_SQUARED 0.568, read-out: LUCIFERASE INFECTION ASSAY - IC50): 5.14 |
| O=C(OCc1csc(-c2ccccc2)n1)c1cc([N+](=O)[O-])ccc1N1CCC(Cc2ccccc2)CC1 | > 10 | pIC50 (HEPG2TOX_HILL_SLOPE 3.49, HEPG2TOX_R_SQUARED 0.926, PBLUC_HILL_SLOPE 12.2, PBLUC_R_SQUARED 0.465, read-out: LUCIFERASE INFECTION ASSAY - IC50): 5.05 |
| CCOC(=O)c1c(C)[nH]c(C(=O)C(C)OC(=O)c2ccc(S(=O)(=O)N(C)c3ccccc3OC)cc2)c1C (centres undefined) | > 10 | pIC50 (HEPG2TOX_HILL_SLOPE 113, HEPG2TOX_R_SQUARED 0.62, read-out: LUCIFERASE INFECTION ASSAY - IC50): < 5.00 |
| O=C(Nn1cnc2sc3c(c2c1=O)CCCC3)c1cc(Br)ccc1O | > 10 | pIC50 (PBLUC_HILL_SLOPE 11.5, PBLUC_R_SQUARED 0.145, read-out: LUCIFERASE INFECTION ASSAY - IC50): 5.02 |
| COc1cccc(OC)c1C(=O)Nc1cc2c(c([N+](=O)[O-])c1C)C(C)(C)CC2(C)C | 6.98 | pIC50 (FFLUC_HILL_SLOPE 10.9, FFLUC_R_SQUARED 0.163, HEPG2TOX_HILL_SLOPE 1.05, HEPG2TOX_R_SQUARED 0.731, PBLUC_HILL_SLOPE 1.82, PBLUC_R_SQUARED 0.597, read-out: LUCIFERASE INFECTION ASSAY - IC50): 5.68 |
| Cc1ccc(COC(=O)c2ccccc2S(=O)(=O)N2CCCCC2)cc1 | > 10 | pIC50 [1]: 5.01 |
| COc1cccc(-c2cc3c(Nc4ccc(Oc5ccccc5)cc4)nccc3[nH]2)c1 | 4 | pIC50 (HEPG2TOX_HILL_SLOPE 11.8, HEPG2TOX_R_SQUARED 0.973, PBLUC_HILL_SLOPE 14.2, PBLUC_R_SQUARED 0.35, read-out: LUCIFERASE INFECTION ASSAY - IC50): 5.46 |
| Cc1nn(Cc2ccccc2)c(Cl)c1C(=O)Nc1nnc(-c2ccccc2)o1 | 4.08 | pIC50 (HEPG2TOX_HILL_SLOPE 1.65, HEPG2TOX_R_SQUARED 0.7, PBLUC_HILL_SLOPE 2.41, 3.47, PBLUC_R_SQUARED 0.702, 0.681, read-out: LUCIFERASE INFECTION ASSAY - IC50): 5.74 |
| CCC(C)(C)c1ccc(Oc2ccc(NC(=O)c3ccc(OC(F)F)c(OC)c3)cc2)cc1 | > 10 | pIC50 (HEPG2TOX_HILL_SLOPE 5.1, HEPG2TOX_R_SQUARED 0.781, PBLUC_HILL_SLOPE 1.15, PBLUC_R_SQUARED 0.697, read-out: LUCIFERASE INFECTION ASSAY - IC50): 5.59 |
| O=C(Nc1ccc(Cl)cc1)c1cc(-c2ccccc2)c(C(F)(F)F)s1 | 6.06 | pIC50 (HEPG2TOX_HILL_SLOPE 3.44, HEPG2TOX_R_SQUARED 0.918, PBLUC_HILL_SLOPE 6.48, PBLUC_R_SQUARED 0.174, read-out: LUCIFERASE INFECTION ASSAY - IC50): 5.36 |
| COC(=O)c1cccc(S(=O)(=O)Oc2cc3ccccc3cc2C(=O)Nc2cc(C)ccc2OC)c1 | > 10 | pIC50 (FFLUC_HILL_SLOPE 26.2, FFLUC_R_SQUARED 0.533, PBLUC_HILL_SLOPE 4.23, PBLUC_R_SQUARED 0.622, read-out: LUCIFERASE INFECTION ASSAY - IC50): 5.08 |
| Cc1cc(C(=O)/C(C#N)=N/Nc2cccc(Cl)c2)n(C(C)(C)C)n1 | > 9.6 | pIC50 (HEPG2TOX_HILL_SLOPE 1.25, HEPG2TOX_R_SQUARED 0.973, PBLUC_HILL_SLOPE 1.27, PBLUC_R_SQUARED 0.674, read-out: LUCIFERASE INFECTION ASSAY - IC50): 5.46 |
| COc1ccc(OC)c(C(C)Nc2ncnc3sccc23)c1 (centres undefined) | > 10 | pIC50 [1]: 5.37 |
| CCNC(=O)C1CCCN(Cc2noc(-c3ccccc3OC)n2)CC1 (centres undefined) | > 9.21 | pIC50 [1]: < 5.04 |
| NS(=O)(=O)c1ccc(N2CCOCC2)c(C(=O)NCCOc2ccc3ccccc3c2)c1 | > 10 | pIC50 [1]: < 5.00 |
| O=C(COc1ccc(C23CC4CC(CC(C4)C2)C3)cc1)N1CCCC1 | 2.75 | pIC50 (PBLUC_HILL_SLOPE 2.17, PBLUC_R_SQUARED 0.715, read-out: LUCIFERASE INFECTION ASSAY - IC50): 6.00 |
| CCN1CCN(c2ccc(S(=O)(=O)N3CCCCC3)cc2NC(=O)COc2ccc(Cl)c(C)c2)CC1 | > 10 | pIC50 [1]: 5.05 |
